Data: article PMC3551614 (Journal of the American Chemical Society, 2012)
Numbered stars: 1 amine (or outer) side, 2 acyl side, 3 side chain; on linkers, the order of the positions; unused ones are H or OH. Bridge positions count the residues as written; N and C are the ends. Square brackets hold non-standard residues; d marks the D form. Peptide text beside a SMILES is read from it. * marks the point of attachment. 5FAM = O=C1OC2(c3ccc(O)cc3Oc3cc(O)ccc32)c2ccc(C(=O)*)cc21; X1 = O=C([C@H]1CNC[C@@H]1N[*:1])[*:2]; β3hE = N[C@@H](CCC(=O)O)CC(=O)O; β3hN = NC(=O)C[C@H](N)CC(=O)O; β3hL = CC(C)C[C@H](N)CC(=O)O; Nle = CCCC[C@H](N)C(=O)O

Target: T1, VEGF (Homo sapiens, UniProt P15692)
T1 sequence (P15692 1-191 isoform P15692-4): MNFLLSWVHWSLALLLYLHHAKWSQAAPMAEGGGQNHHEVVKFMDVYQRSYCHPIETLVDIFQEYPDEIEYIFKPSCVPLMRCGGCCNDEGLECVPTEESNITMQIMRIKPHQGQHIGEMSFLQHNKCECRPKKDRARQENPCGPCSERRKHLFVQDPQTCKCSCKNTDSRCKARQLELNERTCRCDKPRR
Experiment: direct FP binding of N-terminal fluorescein derivatives
Details: domain 2 of VEGFR1 as competitor

CCCC[C@@H]1NC(=O)[C@H](C(C)C)NC(=O)[C@H](Cc2c[nH]cn2)NC(=O)[C@H]([C@@H](C)CC)NC(=O)[C@H](CC(=O)O)NC(=O)[C@@H](NC(=O)C[C@H](CC(N)=O)NC(=O)[C@@H]2CCCN2C(=O)C[C@H](CCC(=O)O)NC(=O)[C@@H](NC(=O)c2ccc3c(c2)C(=O)OC32c3ccc(O)cc3Oc3cc(O)ccc32)C(C)C)CSSC[C@@H](C(=O)N[C@@H](Cc2ccccc2)C(=O)N[C@H]2CNC[C@@H]2C(=O)N[C@@H](CCCNC(=N)N)C(=O)N[C@H](CC(N)=O)CC(C)C)NC(=O)[C@H](CCC(=O)O)NC(=O)[C@H](Cc2c[nH]c3ccccc23)NC(=O)C[C@H](CCC(=O)O)NC(=O)[C@H](Cc2c[nH]c3ccccc23)NC1=O [Flu-3] (5FAM-V[β3hE]P[β3hN]CDIHV[Nle]W[β3hE]WECF[X1]R[β3hL]-NH2; disulfide 5-15; N-terminus and C-terminus assumed)
displacement from VEGF by domain 2 of VEGFR1: displaces
